Key:
Histamine H3 receptor [1] = target: T1, Histamine H3 receptor (Homo sapiens, UniProt Q9Y5N1); test: Displacement of [3H]NAMH from human histamine H3 receptor expressed in CHO cells; type: cell-based
Histamine H3 receptor [2] = target: T2, Histamine H3 receptor (Rattus norvegicus, UniProt Q9QYN8); test: Displacement of [3H]NAMH from rat histamine H3 receptor expressed in CHO cells; type: cell-based
[3] = Terminal half life in fasted Sprague-Dawley rat at 1 mg/kg, iv after 6 to 24 hrs by LC-MS/MS analysis; type: ADME, organism-based; parameters: dose 1 mg/kg, route intravenous; conditions: in vivo, read-out: beta t1/2 (converted)
[4] = Oral bioavailability in fasted Sprague-Dawley rat at 5 mg/kg after 6 hrs by LC-MS/MS analysis; type: ADME, organism-based; conditions: in vivo
[5] = Ratio of drug uptake in brain to plasma of fasted Sprague-Dawley rat at 1 mg/kg, iv after 6 to 24 hrs by LC-MS/MS analysis; type: ADME, organism-based; parameters: dose 1 mg/kg, route intravenous; conditions: read-out: BPR
[6] = Systemic clearance in fasted Sprague-Dawley rat at 1 mg/kg, iv after 6 to 24 hrs by LC-MS/MS analysis; type: ADME, organism-based; parameters: dose 1 mg/kg, route intravenous; conditions: in vivo
[7] = target: Histamine H4 receptor (Homo sapiens) (UniProt Q9H3N8); test: Inhibition of human histamine H4 receptor at 10 uM
Histamine H3 receptor [8] = target: T1, Histamine H3 receptor; test: Antagonist activity against human histamine H3 receptor assessed as inhibition of R-alpha-methylhistamine induced [35S]GTPgammaS binding; type: functional
[9] = target: Histamine H1 receptor (Homo sapiens) (UniProt P35367); test: Inhibition of human histamine H1 receptor at 10 uM
[10] = target: Histamine H2 receptor (Homo sapiens) (UniProt P25021); test: Inhibition of human histamine H2 receptor at 10 uM
[11] = Oral bioavailability in fasted Sprague-Dawley rat at 10 mg/kg after 24 hrs by LC-MS/MS analysis; type: ADME, organism-based; conditions: in vivo
[12] = target: Voltage-gated inwardly rectifying potassium channel KCNH2 (Homo sapiens, UniProt Q12809); test: Inhibition of recombinant human ERG channel expressed in human HEK 293 cells by patch clamp assay; type: cell-based, HEK293
[13] = Distribution coefficient log D of the compound at pH 7.4; type: physicochemical; conditions: octanol/water
Histamine H3 receptor [14] = target: T1, Histamine H3 receptor; test: Inverse agonist activity at human histamine H3 receptor assessed as inhibition of R-alpha-methylhistamine induced [35S]GTPgammaS binding; type: functional
Histamine H3 receptor [15] = target: T2, Histamine H3 receptor; test: Inverse agonist activity at rat histamine H3 receptor assessed as inhibition of R-alpha-methylhistamine induced [35S]GTPgammaS binding; type: functional
Rattus norvegicus = test: Inhibition of RAMH-induced dipsogenia in Long Evans rat administered as po 15 mins prior to RAMH challenge; type: functional

T2 sequence (Q9QYN8 whole entry): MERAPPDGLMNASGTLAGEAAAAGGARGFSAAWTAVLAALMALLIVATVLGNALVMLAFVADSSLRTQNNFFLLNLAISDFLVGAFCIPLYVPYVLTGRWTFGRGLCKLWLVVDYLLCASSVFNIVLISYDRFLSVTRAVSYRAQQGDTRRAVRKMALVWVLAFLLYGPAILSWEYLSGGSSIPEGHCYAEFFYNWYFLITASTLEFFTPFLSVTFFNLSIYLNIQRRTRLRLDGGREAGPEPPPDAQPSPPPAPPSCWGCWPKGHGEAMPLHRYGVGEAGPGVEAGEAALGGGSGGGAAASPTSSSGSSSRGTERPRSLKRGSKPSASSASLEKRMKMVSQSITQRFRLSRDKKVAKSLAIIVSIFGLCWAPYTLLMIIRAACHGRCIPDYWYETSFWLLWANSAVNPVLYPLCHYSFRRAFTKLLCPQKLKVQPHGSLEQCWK
T1 sequence (Q9Y5N1 whole entry): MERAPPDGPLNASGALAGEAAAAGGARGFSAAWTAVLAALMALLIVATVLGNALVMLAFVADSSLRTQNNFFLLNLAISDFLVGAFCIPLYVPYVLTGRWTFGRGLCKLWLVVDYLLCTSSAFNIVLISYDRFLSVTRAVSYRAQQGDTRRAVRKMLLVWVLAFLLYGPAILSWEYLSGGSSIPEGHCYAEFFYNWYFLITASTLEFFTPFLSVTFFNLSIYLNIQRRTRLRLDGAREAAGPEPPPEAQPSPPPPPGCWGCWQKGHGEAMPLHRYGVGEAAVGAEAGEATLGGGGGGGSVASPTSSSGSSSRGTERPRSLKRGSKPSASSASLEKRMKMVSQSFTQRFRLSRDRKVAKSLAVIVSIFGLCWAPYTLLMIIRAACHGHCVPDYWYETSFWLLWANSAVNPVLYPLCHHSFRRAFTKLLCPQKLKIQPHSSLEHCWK
Histamine H2 receptor (Homo sapiens), sequence (P25021 whole entry): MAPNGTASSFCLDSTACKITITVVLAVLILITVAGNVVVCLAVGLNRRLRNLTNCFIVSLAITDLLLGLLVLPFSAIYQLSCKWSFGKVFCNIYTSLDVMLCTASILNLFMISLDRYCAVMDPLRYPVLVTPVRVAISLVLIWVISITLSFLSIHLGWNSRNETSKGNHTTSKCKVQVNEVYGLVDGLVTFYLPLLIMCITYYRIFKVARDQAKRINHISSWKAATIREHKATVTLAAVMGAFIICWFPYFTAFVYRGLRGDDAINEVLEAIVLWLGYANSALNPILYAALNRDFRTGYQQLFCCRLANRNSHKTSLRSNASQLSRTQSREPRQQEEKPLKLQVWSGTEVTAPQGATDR
Voltage-gated inwardly rectifying potassium channel KCNH2, sequence (Q12809 whole entry): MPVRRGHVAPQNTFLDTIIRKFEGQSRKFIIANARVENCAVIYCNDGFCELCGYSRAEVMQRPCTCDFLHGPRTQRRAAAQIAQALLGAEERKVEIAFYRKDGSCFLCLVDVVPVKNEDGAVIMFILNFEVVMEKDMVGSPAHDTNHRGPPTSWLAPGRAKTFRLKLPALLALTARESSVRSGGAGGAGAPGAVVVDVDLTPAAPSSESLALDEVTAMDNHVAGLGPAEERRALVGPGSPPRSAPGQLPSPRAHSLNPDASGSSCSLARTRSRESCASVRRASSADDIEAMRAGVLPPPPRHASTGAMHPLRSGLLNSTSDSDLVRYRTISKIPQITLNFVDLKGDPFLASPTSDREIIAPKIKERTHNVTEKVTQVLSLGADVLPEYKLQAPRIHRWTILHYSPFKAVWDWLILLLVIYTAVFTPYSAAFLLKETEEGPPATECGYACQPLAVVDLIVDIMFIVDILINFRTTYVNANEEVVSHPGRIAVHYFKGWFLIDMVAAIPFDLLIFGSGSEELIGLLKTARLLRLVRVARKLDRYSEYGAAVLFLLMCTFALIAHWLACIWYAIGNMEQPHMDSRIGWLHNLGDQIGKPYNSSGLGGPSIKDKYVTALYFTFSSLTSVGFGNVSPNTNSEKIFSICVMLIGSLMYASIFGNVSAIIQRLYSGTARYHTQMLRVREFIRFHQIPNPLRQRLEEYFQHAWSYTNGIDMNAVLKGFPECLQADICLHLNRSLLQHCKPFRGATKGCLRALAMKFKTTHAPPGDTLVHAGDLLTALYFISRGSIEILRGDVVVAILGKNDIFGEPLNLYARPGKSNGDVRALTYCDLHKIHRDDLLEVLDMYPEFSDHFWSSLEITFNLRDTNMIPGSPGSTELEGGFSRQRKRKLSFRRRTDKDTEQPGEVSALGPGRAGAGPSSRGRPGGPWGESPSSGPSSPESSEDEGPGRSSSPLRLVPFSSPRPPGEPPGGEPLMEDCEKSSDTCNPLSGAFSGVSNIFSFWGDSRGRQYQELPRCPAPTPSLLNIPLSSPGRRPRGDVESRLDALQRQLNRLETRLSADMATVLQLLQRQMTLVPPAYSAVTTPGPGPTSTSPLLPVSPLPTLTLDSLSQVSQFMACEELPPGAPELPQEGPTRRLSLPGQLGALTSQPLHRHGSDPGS
Histamine H1 receptor (Homo sapiens), sequence (P35367 whole entry): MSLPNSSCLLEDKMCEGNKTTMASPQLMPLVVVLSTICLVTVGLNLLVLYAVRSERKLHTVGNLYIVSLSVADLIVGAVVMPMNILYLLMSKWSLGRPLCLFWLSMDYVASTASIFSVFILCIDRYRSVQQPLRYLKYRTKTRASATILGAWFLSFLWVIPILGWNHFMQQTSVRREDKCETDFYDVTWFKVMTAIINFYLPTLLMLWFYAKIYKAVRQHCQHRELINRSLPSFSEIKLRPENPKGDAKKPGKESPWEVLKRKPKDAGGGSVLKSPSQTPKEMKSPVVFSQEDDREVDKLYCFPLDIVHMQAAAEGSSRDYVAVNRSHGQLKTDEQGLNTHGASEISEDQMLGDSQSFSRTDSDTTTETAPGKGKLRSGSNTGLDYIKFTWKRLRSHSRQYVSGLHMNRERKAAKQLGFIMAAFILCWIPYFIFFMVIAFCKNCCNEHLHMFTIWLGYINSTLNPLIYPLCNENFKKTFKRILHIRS

| Ki (Histamine H3 receptor [1]) [nM] | Ki (Histamine H3 receptor [2]) [nM] | half-life [3] [h] | bioavailability [4] [%] | Kp [5] | clearance [6] [mL/min/kg] | Compound | other results |
| --- | --- | --- | --- | --- | --- | --- | --- |
| 16 | 45 | – | – | – | – | O=c1ccc(-c2ccc(OCCCN3CCCC3)cc2)n[nH]1 | – |
| 3.9 | 11 | 0.4 | 18 | 1.5 | 238 | CCn1nc(-c2ccc(OCCCN3CCC[C@H]3C)cc2)ccc1=O | – |
| 6.9 | 12 | 0.7 | < 1 | 3.8 | 46 | C[C@@H]1CCCN1CCCOc1ccc(-c2ccc(=O)n(Cc3ccccc3)n2)cc1 | – |
| 82 | 347 | – | – | – | – | C[C@@H]1CCCN1CCCOc1ccc(-n2ncccc2=O)cc1 | – |
| – | – | – | – | – | – | C[C@@H]1CCCN1CCCOc1ccc(-c2ccc(=O)[nH]n2)cc1 | inhibition [7]: < 11%; Kb (Histamine H3 receptor [8]): 0.4 nM; inhibition [9]: < 11%; inhibition [10]: < 11% |
| 16 | 50 | 1.6 | 25 | 3.1 | 14.5 | C[C@H]1CCCN1CCCOc1ccc(-c2ccc(=O)[nH]n2)cc1 | – |
| 1.4 | 6.3 | 1.6 | – | 3.5 | 45 | C[C@@H]1CCCN1CCCOc1ccc(-c2ccc(=O)n(C)n2)cc1 | Kb (Histamine H3 receptor [8]): 0.5 nM; bioavailability [11]: 39%; IC50 [12]: 13000 nM; logD [13]: 0.8; EC50 (Histamine H3 receptor [14]): 1 nM; EC50 (Histamine H3 receptor [15]): 2.2 nM; ED50 (Rattus norvegicus): 0.14 mg/kg |
| – | 427 | – | – | – | – | Cn1nc(-c2ccc(OCCCN3CCC[C@@H]3CO)cc2)ccc1=O | – |

— ChEMBL document CHEMBL1811886 (J Med Chem, 2011)
